Test results: publication PMC6386767, “Characterization of recombinant fructose-1,6-bisphosphatase gene mutations: evidence of inhibition/activation of FBPase protein by gene mutation” (Bioscience Reports, 2019)
Numbering of substitutions follows the chain as printed.

Columns and labels:
Format in all cases: binding
pig kidney FBPase M248D = target: T1, pig kidney FBPase M248D (Sus scrofa, UniProt P00636, M249D); assay: Differential scanning fluorimetry, M248D mutant; settings: enzyme M248D
T1 construct: His6 (C); made in house; host or cells: Escherichia coli BL21 (DE3)
T1 sequence (P00636 1-338 M249D): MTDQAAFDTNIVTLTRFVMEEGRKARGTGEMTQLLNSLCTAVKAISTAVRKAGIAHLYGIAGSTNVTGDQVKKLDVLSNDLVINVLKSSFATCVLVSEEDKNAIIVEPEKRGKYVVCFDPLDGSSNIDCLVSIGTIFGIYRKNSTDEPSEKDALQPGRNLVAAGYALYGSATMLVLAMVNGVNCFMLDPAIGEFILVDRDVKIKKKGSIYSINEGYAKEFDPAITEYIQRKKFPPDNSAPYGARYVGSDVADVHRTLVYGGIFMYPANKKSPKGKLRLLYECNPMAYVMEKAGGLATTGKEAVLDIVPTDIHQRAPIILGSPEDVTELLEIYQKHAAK
Method: (§1) Differential scanning fluorimetry (DSF) assays were designed and implemented to run on WT and each mutant for the purpose of determining relative stabilities by melting point, and to detect structural changes in the enzymes upon ligand binding. Thermal shift assays were performed with a Light Cycler 96 System Real-Time PCR machine (Roche) using Sypro-Orange dye (Invitrogen) and thermal ramping (0.25°C per min between 20 and 85°C). […] Data were processed using the Boltzmann equation to generate sigmoidal denaturation curves, and average Tm/ΔTm values were calculated as previously described using GraphPad Prism software package.

pig kidney FBPase WT = target: T2, pig kidney FBPase WT (Sus scrofa, UniProt P00636); assay: Differential scanning fluorimetry, WT enzyme; settings: enzyme WT
T2 construct: His6 (C); made in house; host or cells: Escherichia coli BL21 (DE3)
T2 sequence (P00636 1-338): T1 sequence (P00636 1-338 M249D) with D249M
Method: as §1

pig kidney FBPase Y164A = target: T3, pig kidney FBPase Y164A (Sus scrofa, UniProt P00636, Y165A); assay: Differential scanning fluorimetry, Y164A mutant; settings: enzyme Y164A
T3 construct: His6 (C); made in house; host or cells: Escherichia coli BL21 (DE3)
T3 sequence (P00636 1-338 Y165A): T1 sequence (P00636 1-338 M249D) with Y165A, D249M
Method: as §1

pig kidney FBPase L56A = target: T4, pig kidney FBPase L56A (Sus scrofa, UniProt P00636, L57A); assay: Differential scanning fluorimetry, L56A mutant; settings: enzyme L56A
T4 construct: His6 (C); made in house; host or cells: Escherichia coli BL21 (DE3)
T4 sequence (P00636 1-338 L57A): T1 sequence (P00636 1-338 M249D) with L57A, D249M
Method: as §1

pig kidney FBPase Y113A = target: T5, pig kidney FBPase Y113A (Sus scrofa, UniProt P00636, Y114A); assay: Differential scanning fluorimetry, Y113A mutant; settings: enzyme Y113A
T5 construct: His6 (C); made in house; host or cells: Escherichia coli BL21 (DE3)
T5 sequence (P00636 1-338 Y114A): T1 sequence (P00636 1-338 M249D) with Y114A, D249M
Method: as §1

pig kidney FBPase K112A = target: T6, pig kidney FBPase K112A (Sus scrofa, UniProt P00636, K113A); assay: Differential scanning fluorimetry, K112A mutant; settings: enzyme K112A
T6 construct: His6 (C); made in house; host or cells: Escherichia coli BL21 (DE3)
T6 sequence (P00636 1-338 K113A): T1 sequence (P00636 1-338 M249D) with K113A, D249M
Method: as §1

SMILES	melting point of enzyme with AMP (100 µM) (pig kidney FBPase M248D; AMP 100 µM)	melting point of enzyme with AMP (100 µM) (pig kidney FBPase WT; AMP 100 µM)	melting point of enzyme with AMP (100 µM) (pig kidney FBPase Y164A; AMP 100 µM)	melting point of enzyme with AMP (100 µM) (pig kidney FBPase L56A; AMP 100 µM)	reduction in melting temperature, presence of AMP vs absence of ligand (pig kidney FBPase Y113A)	melting point of enzyme with AMP (100 µM) (pig kidney FBPase Y113A; AMP 100 µM)	reduction in melting temperature, presence of AMP vs absence of ligand (pig kidney FBPase K112A)	melting point of enzyme with AMP (100 µM) (pig kidney FBPase K112A; AMP 100 µM)	melting point of enzyme with Mg^2+ ([…]) (pig kidney FBPase M248D; Mg^2+ […])	melting point of enzyme with Mg^2+ ([…]) (pig kidney FBPase WT; Mg^2+ […])	melting point of enzyme with Mg^2+ ([…]) (pig kidney FBPase Y164A; Mg^2+ […])	melting point of enzyme with Mg^2+ ([…]) (pig kidney FBPase L56A; Mg^2+ […])	melting point of enzyme with Mg^2+ ([…]) (pig kidney FBPase Y113A; Mg^2+ […])	melting point of enzyme with Mg^2+ ([…]) (pig kidney FBPase K112A; Mg^2+ […])
Nc1ncnc2c1ncn2[C@@H]1O[C@H](COP(=O)(O)O)[C@@H](O)[C@H]1O [AMP]	59.0 (± 2.50) °C	59.0 (± 1.75) °C	55.0 (± 2.25) °C	57.0 (± 2.75) °C	5–9 °	45.0 (± 1.25) °C	5–9 °	42.0 (± 2.50) °C	–	–	–	–	–	–
[Mg+2] [Mg^2+, magnesium]	–	–	–	–	–	–	–	–	65.0 (± 1.75) °C	50.0 (± 1.25) °C	55.2 (± 1.75) °C	56.0 (± 2.50) °C	52.0 (± 1.50) °C	51.0 (± 2.50) °C
